Measurements published in patent publication EP0431799A2, “Use of nucleoside derivatives as cytotoxic agents” (THE WELLCOME FOUNDATION LIMITED, priority 1989, dated 1991).

System: P388 tumor cells
Set-up: species or system Male CD2-F₁ mice
Details: mouse, in vivo, po
Text: The tests employed for evaluating the antitumour activity of compounds of the present invention are essentially those used in the Tumor Panel of the Developmental Therapeutics Program, Divison of Cancer Treatment National Cancer Institute, A Goldin, et al., Methods in Cancer Research, Vol. XVI, p. 165, Academic Press (1979). Some modifications in dose level and schedule have been made to increase the testing efficiency.
Male CD2-F₁ mice, weighing 20 ± 3 g, were used for this test. Control and test animals were injected intraperitioneally with a suspension of ∼10⁶ viable P388 tumor cells on day 0. In each test, several dose levels which bracketed the LD₂₀ of the compound were evaluated; each dose level group contained six animals. The test compounds were prepared either in physiologic saline containing 0.05% Tween 80 or distilled water containing 5% dextrose and were administered (a) orally, (b) intravenously or (c) intraperitoneally according to the indicated schedule relative to the day of tumour implant. Doses were on a mg/kg basis according to individual animals' body weights. The day of death for each animal was recorded, the median identified for each group and the percent increase in life span (%ILS) was calculated from the ratios of median survival time for treated to control groups. The criterion for activity is % ILS greater than or equal to 20%.

## Nc1ncnc2c1ncn2[C@@H]1CC[C@@H](O)[C@H]1O (racemic) [(±)-(1R*,2S*,3R*)-3-(6-amino-9H-purin-9-yl)-1,2-cyclopentanediol]
  Toxic at:: 35 mg/kg
